We go through 21 molecules from US20250144094A1 (Erasca, Inc., priority 2021, published 2025).

Structures are written as SMILES.

Sequence of Recombinant human ULK1 (1-649) (O75385 1-649): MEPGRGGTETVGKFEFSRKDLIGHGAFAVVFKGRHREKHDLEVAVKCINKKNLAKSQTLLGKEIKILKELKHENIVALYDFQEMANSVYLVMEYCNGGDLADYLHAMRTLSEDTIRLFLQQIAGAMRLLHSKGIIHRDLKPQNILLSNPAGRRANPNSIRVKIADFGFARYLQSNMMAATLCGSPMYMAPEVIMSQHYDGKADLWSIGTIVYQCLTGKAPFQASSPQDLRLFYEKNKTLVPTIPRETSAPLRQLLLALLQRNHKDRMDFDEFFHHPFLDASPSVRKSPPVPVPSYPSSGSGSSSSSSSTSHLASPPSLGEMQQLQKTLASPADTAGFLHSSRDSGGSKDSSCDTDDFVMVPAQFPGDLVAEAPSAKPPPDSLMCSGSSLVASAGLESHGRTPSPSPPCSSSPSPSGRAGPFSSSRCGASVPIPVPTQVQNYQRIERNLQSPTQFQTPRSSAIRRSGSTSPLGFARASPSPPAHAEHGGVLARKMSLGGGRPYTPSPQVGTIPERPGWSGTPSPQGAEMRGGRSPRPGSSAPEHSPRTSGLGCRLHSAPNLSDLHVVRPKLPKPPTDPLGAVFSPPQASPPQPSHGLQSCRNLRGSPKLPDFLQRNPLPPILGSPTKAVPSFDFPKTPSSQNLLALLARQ

The assay addresses Recombinant human ULK1 (1-649) (Homo sapiens (Human), UniProt O75385). Description: ULK1 ADP Glo kinase activity assay, new method (ULKtide peptide substrate). The conditions noted are these: 25° C., 40 minutes, read-out: ULK1 biochemical IC50. In a few lines:
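Kinase activity was read as ADP production (ADP-Glo, luminescence 30 min after detection reagent) following a 40-min, 25 °C reaction of Sf9-expressed GST-ULK1 (1-649) with ULKtide substrate and ATP. Compounds ran as 12-point series starting at 10 μM; four-parameter curve fitting versus DMSO wells gave IC50.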
`CC(C)(O)CN1CCc2cc(Nc3ncc(C(F)(F)F)c(-c4cc5c(s4)C(=O)N(C4COC4)CCS5(=O)=O)n3)c(C3CC3)cc2C1` [Example 291, 7-(2-((7-cyclopropyl-2-(2-hydroxy-2-methylpropyl)-1,2,3,4-tetrahydroisoquinolin-6-yl)amino)-5-(trifluoromethyl)pyrimidin-4-yl)-4-(oxetan-3-yl)-3,4-dihydrothieno[2,3-f][1,4]thiazepin-5(2H)-one 1,1-dioxide]: the IC50 was no more than 5 nM.
In the case of `O=C1c2sc(-c3nc(Nc4cc5c(cc4C4CC4)CN(C4COC4)CC5)ncc3C(F)(F)F)cc2S(=O)(=O)CCN1C1COC1` [Example 292, 7-(2-((7-cyclopropyl-2-(oxetan-3-yl)-1,2,3,4-tetrahydroisoquinolin-6-yl)amino)-5-(trifluoromethyl)pyrimidin-4-yl)-4-(oxetan-3-yl)-3,4-dihydrothieno[2,3-f][1,4]thiazepin-5(2H)-one 1,1-dioxide], the IC50 is no more than 5 nM.
Regarding `O=C1c2sc(-c3nc(Nc4cc5c(cc4C4CC4)CN(C4CC4)CC5)ncc3C(F)(F)F)cc2S(=O)(=O)CCN1C1CC1` [Example 293, 4-Cyclopropyl-7-(2-((2,7-dicyclopropyl-1,2,3,4-tetrahydroisoquinolin-6-yl)amino)-5-(trifluoromethyl)pyrimidin-4-yl)-3,4-dihydrothieno[2,3-f][1,4]thiazepin-5(2H)-one 1,1-dioxide], the IC50 was 5 to 10 nM.
In the case of `CCc1cc(N2CCN(C3CC3)CC2)ccc1Nc1ncc(C(F)(F)F)c(-c2cc3c(s2)C(=O)N(C2CC2)CCS3(=O)=O)n1` [Example 294, 4-Cyclopropyl-7-(2-((4-(4-cyclopropylpiperazin-1-yl)-2-ethylphenyl)amino)-5-(trifluoromethyl)pyrimidin-4-yl)-3,4-dihydrothieno[2,3-f][1,4]thiazepin-5(2H)-one 1,1-dioxide] it was no more than 5 nM.
`O=S1(=O)CCNS(=O)(=O)c2sc(-c3nc(Nc4cc5c(cc4Cl)CNCC5)ncc3C(F)(F)F)cc21` [Example 295, 7-(2-((7-chloro-1,2,3,4-tetrahydroisoquinolin-6-yl)amino)-5-(trifluoromethyl)pyrimidin-4-yl)-3,4-dihydro-2H-thieno[3,2-f][1,5,2]dithiazepine 1,1,5,5-tetraoxide]: the IC50 was no more than 5 nM.
For `CCc1cc(C2CCN(CC(F)F)CC2)ccc1Nc1ncc(C(F)(F)F)c(-c2cc3c(s2)C(=O)N(C2COC2)CCS3(=O)=O)n1` [Example 296, 7-(2-((4-(1-(2,2-difluoroethyl)piperidin-4-yl)-2-ethylphenyl)amino)-5-(trifluoromethyl)pyrimidin-4-yl)-4-(oxetan-3-yl)-3,4-dihydrothieno[2,3-f][1,4]thiazepin-5(2H)-one 1,1-dioxide], the IC50 fell in the range of 5 to 10 nM.
Under `CC1(C)CC(CN2CCc3cc(Nc4ncc(C(F)(F)F)c(-c5cc6c(s5)C(=O)N(C5CC5)CCS6(=O)=O)n4)c(C4CC4)cc3C2)O1` (stereo not drawn) [Example 297, 4-Cyclopropyl-7-(2-((7-cyclopropyl-2-((4,4-dimethyloxetan-2-yl)methyl)-1,2,3,4-tetrahydroisoquinolin-6-yl)amino)-5-(trifluoromethyl)pyrimidin-4-yl)-3,4-dihydrothieno[2,3-f][1,4]thiazepin-5(2H)-one 1,1-dioxide] stands no more than 5 nM; under `CCc1cc(C2CCN(CC(F)(F)F)CC2)ccc1Nc1ncc(C(F)(F)F)c(-c2cc3c(s2)C(=O)N(C2COC2)CCS3(=O)=O)n1` [Example 298, 7-(2-((2-Ethyl-4-(1-(2,2,2-trifluoroethyl)piperidin-4-yl)phenyl)amino)-5-(trifluoromethyl)pyrimidin-4-yl)-4-(oxetan-3-yl)-3,4-dihydrothieno[2,3-f][1,4]thiazepin-5(2H)-one 1,1-dioxide], 10 to 50 nM.
In the case of `CC(C)(F)CN1CCc2cc(Nc3ncc(C(F)(F)F)c(-c4cc5c(s4)C(=O)N(C4CC4)CCS5(=O)=O)n3)c(C3CC3)cc2C1` [Example 299, 4-cyclopropyl-7-(2-((7-cyclopropyl-2-(2-fluoro-2-methylpropyl)-1,2,3,4-tetrahydroisoquinolin-6-yl)amino)-5-(trifluoromethyl)pyrimidin-4-yl)-3,4-dihydrothieno[2,3-f][1,4]thiazepin-5(2H)-one 1,1-dioxide], the IC50 is 10 to 50 nM.
Turning to `CC(C)(F)CN1CCc2cc(Nc3ncc(C(F)(F)F)c(-c4cc5c(s4)C(=O)N(C4COC4)CCS5(=O)=O)n3)c(C3CC3)cc2C1` [Example 300, 7-(2-((7-cyclopropyl-2-(2-fluoro-2-methylpropyl)-1,2,3,4-tetrahydroisoquinolin-6-yl)amino)-5-(trifluoromethyl)pyrimidin-4-yl)-4-(oxetan-3-yl)-3,4-dihydrothieno[2,3-f][1,4]thiazepin-5(2H)-one 1,1-dioxide], the half-maximal inhibitory concentration (IC50) was in the range of 10 to 50 nM.
On to `O=C1c2sc(-c3nc(Nc4cc5c(cc4C4CC4)CN(C4CC4)CC5)ncc3C(F)(F)F)cc2S(=O)(=O)CCN1C1COC1` [Example 301, 7-(2-((2,7-dicyclopropyl-1,2,3,4-tetrahydroisoquinolin-6-yl)amino)-5-(trifluoromethyl)pyrimidin-4-yl)-4-(oxetan-3-yl)-3,4-dihydrothieno[2,3-f][1,4]thiazepin-5(2H)-one 1,1-dioxide], for which the IC50 was no more than 5 nM.
Consider `CN1CCS(=O)(=O)c2cc(-c3nc(Nc4cc5c(cc4Cl)CNCC5)ncc3C(F)(F)F)sc2S1(=O)=O` [Example 302, 7-(2-((7-chloro-1,2,3,4-tetrahydroisoquinolin-6-yl)amino)-5-(trifluoromethyl)pyrimidin-4-yl)-2-methyl-3,4-dihydro-2H-thieno[3,2-f][1,5,2]dithiazepine 1,1,5,5-tetraoxide], for which the half-maximal inhibitory concentration (IC50) was no more than 5 nM.
As for `O=C1c2sc(-c3nc(Nc4cc5c(nc4C4CC4)CNCC5)ncc3C(F)(F)F)cc2S(=O)(=O)CCN1C1CC1` [Example 303, 4-cyclopropyl-7-(2-((2-cyclopropyl-5,6,7,8-tetrahydro-1,7-naphthyridin-3-yl)amino)-5-(trifluoromethyl)pyrimidin-4-yl)-3,4-dihydrothieno[2,3-f][1,4]thiazepin-5(2H)-one 1,1-dioxide], the concentration for half-maximal inhibition (IC50) is no more than 5 nM.
For the molecule `O=C1c2sc(-c3nc(Nc4cc5c(nc4C4CC4)CNCC5)ncc3C(F)(F)F)cc2S(=O)(=O)CCN1C1COC1` [Example 304, 7-(2-((2-cyclopropyl-5,6,7,8-tetrahydro-1,7-naphthyridin-3-yl)amino)-5-(trifluoromethyl)pyrimidin-4-yl)-4-(oxetan-3-yl)-3,4-dihydrothieno[2,3-f][1,4]thiazepin-5(2H)-one 1,1-dioxide], the IC50 is no more than 5 nM.
For `O=C1c2sc(-c3nc(Nc4ccc(N5C[C@@H]6C[C@H]5CN6)cc4C4CC4)ncc3C(F)(F)F)cc2S(=O)(=O)CCN1C1CC1` [Example 305, 7-(2-((4-((1S,4S)-2,5-diazabicyclo[2.2.1]heptan-2-yl)-2-cyclopropylphenyl)amino)-5-(trifluoromethyl)pyrimidin-4-yl)-4-cyclopropyl-3,4-dihydrothieno[2,3-f][1,4]thiazepin-5(2H)-one 1,1-dioxide], the IC50 is no more than 5 nM.
Under `CN1C[C@@H]2C[C@H]1CN2c1ccc(Nc2ncc(C(F)(F)F)c(-c3cc4c(s3)C(=O)N(C3CC3)CCS4(=O)=O)n2)c(C2CC2)c1` [Example 306, 4-Cyclopropyl-7-(2-((2-cyclopropyl-4-((1S,4S)-5-methyl-2,5-diazabicyclo[2.2.1]heptan-2-yl)phenyl)amino)-5-(trifluoromethyl)pyrimidin-4-yl)-3,4-dihydrothieno[2,3-f][1,4]thiazepin-5(2H)-one 1,1-dioxide] stands no more than 5 nM.
`O=C1c2sc(-c3nc(Nc4ccc(N5C[C@H]6CC[C@@H](C5)N6)cc4C4CC4)ncc3C(F)(F)F)cc2S(=O)(=O)CCN1C1CC1` [Example 307, 7-(2-((4-((1R,5S)-3,8-diazabicyclo[3.2.1]octan-3-yl)-2-cyclopropylphenyl)amino)-5-(trifluoromethyl)pyrimidin-4-yl)-4-cyclopropyl-3,4-dihydrothieno[2,3-f][1,4]thiazepin-5(2H)-one 1,1-dioxide]: the IC50 was no more than 5 nM.
With `C[C@@H]1CN(c2ccc(Nc3ncc(C(F)(F)F)c(-c4cc5c(s4)C(=O)N(C4CC4)CCS5(=O)=O)n3)c(C3CC3)c2)CCN1` [Example 308, (R)-4-cyclopropyl-7-(2-((2-cyclopropyl-4-(3-methylpiperazin-1-yl)phenyl)amino)-5-(trifluoromethyl)pyrimidin-4-yl)-3,4-dihydrothieno[2,3-f][1,4]thiazepin-5(2H)-one 1,1-dioxide], the half-inhibitory concentration (IC50) is no more than 5 nM.
Regarding `C[C@@H]1CN(c2ccc(Nc3ncc(C(F)(F)F)c(-c4cc5c(s4)C(=O)N(C4CC4)CCS5(=O)=O)n3)c(C3CC3)c2)CCN1C` [Example 309, (R)-4-cyclopropyl-7-(2-((2-cyclopropyl-4-(3,4-dimethylpiperazin-1-yl)phenyl)amino)-5-(trifluoromethyl)pyrimidin-4-yl)-3,4-dihydrothieno[2,3-f][1,4]thiazepin-5(2H)-one 1,1-dioxide], the IC50 is no more than 5 nM.
Consider `O=C1c2sc(-c3nc(Nc4ccc(N5C[C@@H]6C[C@H]5CN6)cc4C4CC4)ncc3C(F)(F)F)cc2S(=O)(=O)CCN1C1COC1` [Example 310, 7-(2-((4-((1S,4S)-2,5-diazabicyclo[2.2.1]heptan-2-yl)-2-cyclopropylphenyl)amino)-5-(trifluoromethyl)pyrimidin-4-yl)-4-(oxetan-3-yl)-3,4-dihydrothieno[2,3-f][1,4]thiazepin-5(2H)-one 1,1-dioxide], for which the IC50 is no more than 5 nM.
Regarding `O=S1(=O)CCNS(=O)(=O)c2sc(-c3nc(Nc4cc5c(cc4C4CC4)CNCC5)ncc3C(F)(F)F)cc21` [Example 311, 7-(2-((7-cyclopropyl-1,2,3,4-tetrahydroisoquinolin-6-yl)amino)-5-(trifluoromethyl)pyrimidin-4-yl)-3,4-dihydro-2H-thieno[3,2-f][1,5,2]dithiazepine 1,1,5,5-tetraoxide], the IC50 is no more than 5 nM.

For orientation: IC50 means the concentration that inhibits the measured activity by half.
